pIC50: −log10 of the molar value.
Tests used:
[1] = target: T1, Prostaglandin G/H synthase 1 (Homo sapiens, UniProt P23219); test: Percent inhibition at 10 uM concentration against human recombinant Prostaglandin G/H synthase 1 cloned and expressed in baculovirus (Sf9)
[2] = target: T1, Prostaglandin G/H synthase 1; test: Percent inhibition at 10 uM concentration against human recombinant Prostaglandin G/H synthase 1 cloned and expressed in baculovirus
[3] = target: T2, Prostaglandin G/H synthase 2 (Homo sapiens, UniProt P35354); test: biochemical
T2 sequence (P35354 whole entry): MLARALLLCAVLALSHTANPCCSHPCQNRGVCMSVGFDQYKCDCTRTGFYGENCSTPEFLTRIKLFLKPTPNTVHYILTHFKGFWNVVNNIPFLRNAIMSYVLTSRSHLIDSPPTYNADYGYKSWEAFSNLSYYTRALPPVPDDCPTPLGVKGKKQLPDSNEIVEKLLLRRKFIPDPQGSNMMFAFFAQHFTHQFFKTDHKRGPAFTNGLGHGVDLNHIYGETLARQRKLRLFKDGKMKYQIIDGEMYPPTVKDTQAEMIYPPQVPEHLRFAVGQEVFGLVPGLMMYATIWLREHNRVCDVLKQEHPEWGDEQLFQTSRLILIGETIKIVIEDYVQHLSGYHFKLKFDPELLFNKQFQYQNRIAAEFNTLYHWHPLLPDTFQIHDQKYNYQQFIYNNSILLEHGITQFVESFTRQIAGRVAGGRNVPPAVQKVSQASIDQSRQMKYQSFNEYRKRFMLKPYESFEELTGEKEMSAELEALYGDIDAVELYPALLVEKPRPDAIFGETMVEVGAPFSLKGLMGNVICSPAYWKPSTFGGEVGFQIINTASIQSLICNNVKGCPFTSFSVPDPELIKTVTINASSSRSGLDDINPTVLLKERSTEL
Description: Inhibitory concentration against human recombinant Prostaglandin G/H synthase 2 cloned and expressed in baculovirus (Sf9)

[4] = target: T1, Prostaglandin G/H synthase 1; test: Inhibitory concentration against human recombinant Prostaglandin G/H synthase 1 cloned and expressed in baculovirus (Sf9)
[5] = target: T3, Prostaglandin G/H synthase 2 (Homo sapiens) (UniProt P35354); test: Percent inhibition at 100 nM concentration against human recombinant Prostaglandin G/H synthase 2 cloned and expressed in baculovirus (Sf9)
T3 sequence (whole entry): T2 sequence (P35354 whole entry)

T1 sequence (P23219 whole entry): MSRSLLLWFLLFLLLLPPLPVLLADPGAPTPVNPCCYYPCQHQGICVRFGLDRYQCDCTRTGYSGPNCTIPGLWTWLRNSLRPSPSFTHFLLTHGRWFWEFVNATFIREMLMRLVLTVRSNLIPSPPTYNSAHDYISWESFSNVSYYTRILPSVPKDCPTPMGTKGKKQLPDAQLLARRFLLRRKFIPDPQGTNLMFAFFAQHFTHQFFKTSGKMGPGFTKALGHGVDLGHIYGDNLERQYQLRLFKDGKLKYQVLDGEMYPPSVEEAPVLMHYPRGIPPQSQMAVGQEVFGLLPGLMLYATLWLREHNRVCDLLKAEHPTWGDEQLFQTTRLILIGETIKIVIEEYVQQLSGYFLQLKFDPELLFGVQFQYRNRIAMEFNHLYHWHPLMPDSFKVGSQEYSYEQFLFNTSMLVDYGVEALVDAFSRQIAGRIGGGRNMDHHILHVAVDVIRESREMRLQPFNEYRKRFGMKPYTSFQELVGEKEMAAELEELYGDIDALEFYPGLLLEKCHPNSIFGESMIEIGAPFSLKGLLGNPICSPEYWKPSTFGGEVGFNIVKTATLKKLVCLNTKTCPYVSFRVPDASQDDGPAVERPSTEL

| inhibition [1] [%] | inhibition [2] [%] | pIC50 [3] | pIC50 [4] | inhibition [5] [%] | SMILES |
| --- | --- | --- | --- | --- | --- |
| 28 | – | – | – | – | COc1ccc2c(c1)c(Cc1nc(-c3ccc(F)cc3)cs1)c(C)n2C(=O)c1ccc(Cl)cc1 |
| – | 9 | 8.15 | – | – | COc1ccc2c(c1)c(Cc1nc(-c3ccc([N+](=O)[O-])cc3)cs1)c(C)n2C(=O)c1ccc(Br)cc1 |
| – | 35 | 6.92 | – | – | COc1ccc2c(c1)c(Cc1nc(-c3ccc(C(=O)O)cc3)cs1)c(C)n2C(=O)c1ccc(Cl)cc1 |
| – | – | 6.41 | 1.81 | – | COc1ccc2c(c1)c(Cc1csc(N)n1)c(C)n2C(=O)c1ccc(Cl)cc1 |
| – | 18 | – | – | – | COc1ccc2c(c1)c(Cc1nc(-c3cccc(Br)c3)cs1)c(C)n2C(=O)c1ccc(Cl)cc1 |
| 17 | – | – | – | – | COc1ccc2c(c1)c(Cc1nc(-c3ccc([N+](=O)[O-])cc3)cs1)c(C)n2C(=O)c1ccc(Cl)cc1 |
| – | 12 | – | – | 75 | COc1ccc2c(c1)c(Cc1nc(-c3ccc(F)cc3F)cs1)c(C)n2C(=O)c1ccc(Cl)cc1 |
| – | 4 | – | – | 9 | Cc1c(Cc2nc(-c3ccc(Cl)cc3)cs2)c2cc(Br)ccc2n1C(=O)c1ccc(Br)cc1 |
| 27 | – | – | – | – | COc1ccc2c(c1)c(Cc1nc(-c3ccc(Br)cc3)cs1)c(C)n2C(=O)c1ccc(Cl)cc1 |
| – | 7 | – | – | 37 | Cc1c(Cc2nc(-c3ccc(Cl)cc3)cs2)c2cc(F)ccc2n1C(=O)c1ccc(Br)cc1 |
| – | 15 | – | – | 33 | COc1ccc2c(c1)c(Cc1nc(-c3ccc(S(C)(=O)=O)cc3)cs1)c(C)n2C(=O)c1ccc(Cl)cc1 |
| – | 24 | – | – | 42 | COc1ccc2c(c1)c(Cc1csc(-c3ccccc3Cl)n1)c(C)n2C(=O)c1ccc(Cl)cc1 |
| – | 18 | – | – | 16 | COc1ccc2c(c1)c(Cc1csc(-c3ccc(Cl)cc3)n1)c(C)n2C(=O)c1ccc(Cl)cc1 |
| – | 2 | 8.15 | – | – | COc1ccc2c(c1)c(Cc1nc(-c3ccc(Cl)cc3)cs1)c(C)n2C(=O)c1ccc(Br)cc1 |
| – | 13 | – | – | 7 | Cc1c(Cc2nc(-c3ccc(Br)cc3)cs2)c2cc(Br)ccc2n1C(=O)c1ccc(Br)cc1 |
| – | 6 | – | – | 2 | COc1ccc2c(c1)c(Cc1nc(C(=O)O)cs1)c(C)n2C(=O)c1ccc(Cl)cc1 |
| – | 36 | – | – | 1 | COc1ccc2c(c1)c(Cc1nc(C(C)C)cs1)c(C)n2C(=O)c1ccc(Cl)cc1 |

| inhibition [1] [%] | inhibition [2] [%] | pIC50 [3] | pIC50 [4] | inhibition [5] [%] | SMILES |
| --- | --- | --- | --- | --- | --- |
| 16 | – | – | – | – | COc1ccc2c(c1)c(Cc1nc(-c3ccc(Cl)cc3)cs1)c(C)n2C(=O)c1ccc(Cl)cc1 |
| 13 | – | – | – | 21 | COc1ccc2c(c1)c(Cc1nc(-c3ccc(-c4ccccc4)cc3)cs1)c(C)n2C(=O)c1ccc(Cl)cc1 |
| – | 1 | – | – | 40 | Cc1c(Cc2nc(-c3ccc([N+](=O)[O-])cc3)cs2)c2cc(F)ccc2n1C(=O)c1ccc(Br)cc1 |
| – | 23 | – | – | 36 | CCN(CC)c1ccc(-c2csc(Cc3c(C)n(C(=O)c4ccc(Cl)cc4)c4ccc(OC)cc34)n2)cc1 |
| – | 27 | – | – | 4 | COc1ccc2c(c1)c(Cc1csc(NC(=O)CN)n1)c(C)n2C(=O)c1ccc(Cl)cc1 |
| – | 57 | – | – | 75 | COc1ccc2c(c1)c(Cc1csc(-c3ccncc3)n1)c(C)n2C(=O)c1ccc(Cl)cc1 |
| – | 1 | – | – | 40 | CCOC(=O)c1csc(Cc2c(C)n(C(=O)c3ccc(Cl)cc3)c3ccc(OC)cc23)n1 |
| – | 1 | – | – | 7 | Cc1c(Cc2nc(-c3ccc([N+](=O)[O-])cc3)cs2)c2cc(Br)ccc2n1C(=O)c1ccc(Br)cc1 |
| – | 3 | 7.52 | – | – | COc1ccc2c(c1)c(Cc1nc(-c3ccc(Br)cc3)cs1)c(C)n2C(=O)c1ccc(Br)cc1 |
| – | 35 | – | – | 85 | COc1ccc2c(c1)c(Cc1nc(-c3cccc([N+](=O)[O-])c3)cs1)c(C)n2C(=O)c1ccc(Cl)cc1 |
| – | 0 | – | – | 25 | Cc1c(Cc2nc(-c3ccc(Br)cc3)cs2)c2cc(F)ccc2n1C(=O)c1ccc(Br)cc1 |
| – | 47 | – | – | 20 | COc1ccc2c(c1)c(Cc1csc(-c3cccnc3)n1)c(C)n2C(=O)c1ccc(Cl)cc1 |
| – | 13 | – | – | 6 | COc1ccc2c(c1)c(Cc1nc(C34C[C@H]5C[C@@H](C3)C[C@@H](C4)C5)cs1)c(C)n2C(=O)c1ccc(Cl)cc1 |
| – | 11 | – | – | – | COc1ccc2c(c1)c(Cc1nc(-c3ccc4ccccc4c3)cs1)c(C)n2C(=O)c1ccc(Cl)cc1 |
| – | 20 | – | – | – | COc1ccc2c(c1)c(Cc1nc(-c3csc4ccccc34)cs1)c(C)n2C(=O)c1ccc(Cl)cc1 |
| – | 0 | – | – | 45 | COc1ccc2c(c1)c(Cc1csc(NC(=O)c3ccncc3)n1)c(C)n2C(=O)c1ccc(Cl)cc1 |
| – | 40 | – | – | 10 | COc1ccc2c(c1)c(Cc1nc(-c3ccc(C(=O)O)cc3)cs1)c(C)n2C(=O)c1ccc(Br)cc1 |

— ChEMBL document CHEMBL1134068, “Thiazole analogues of the NSAID indomethacin as selective COX-2 inhibitors” (Bioorg Med Chem Lett, 2001)
